Results: patent US7666454B2, “Cosmetic composition comprising an essential oil extracted from Helichrysum italicum” (L'Occitane, priority 2001, dated 2010)

Test system: human endothelial cells in co-culture (AngioKit)
Test: AngioKit in vitro angiogenesis model (tubule formation, CD31 staining, image analysis)
Type: cell-based
Experimental: The in vitro model we used was the AngioKit (Biopredic—ref ZHA-1000—lot no. 25173T) which approaches a more global vision of angiogenesis. In this model, human endothelial cells are seeded in a specific medium in co-culture with another type of human cells. In the initial phase, the endothelial cells form small islets. They begin to proliferate and then enter into a migration phase which leads to formation of structures of filamentous tubule form in the matrix. At the end of 10 to 12 days, the connections established form a network of anastomosed tubules. The staining of the tubules is obtained by specific marking of the antigen of surface antigen CD31 (PECAM-1), which is expressed by the endothelial cells.
The test is validated by staining the tubules and verification of the inhibitory and activating action of two pharmacological compounds known to act on angiogenesis. The action on angiogenesis of the active ingredients tested was evaluated by quantitative image analysis.
The cells were cultured in 24-well plates in an incubator at 37° C. under a humid atmosphere containing 5% CO2.
The specific culture medium was eliminated and the cells were placed under different experimental conditions:
Negative control: suramin, agent inhibiting formation of tubules—final concentration: 20 μM;
Positive control: VEGF, activating agent of angiogenesis—final concentration: 2 ng/ml;
Composition for the face: Since this composition of essential oils is not miscible in the culture medium, it was dissolved in absolute ethanol and tested at three concentrations (the non-cytotoxic character of which had been verified in advance by 24-hour contact with normal human fibroblasts): 0.005%-0.01%-0.05% (v/v); and
Solvent control: since ethanol could have effects on angiogenesis, it was tested at the final concentration required for dissolving the essential oils composition: 0.1% (v/v).
Each condition was implemented in duplicate. Microscopic observation of the cells was performed daily to monitor formation of tubules as shown in the photograph of FIG. 2.
The media were eliminated and the conditions were renewed on the 3rd, 6th and 9th day of the experiment. On the 10th day, the cells were fixed and stained: after rinsing in the PBS buffer, the cells were fixed in a 70% ethanol solution cooled at −20° C. for 30 minutes. The cells were then incubated for 1 hour at 37° C. with the human anti-CD-31 ZIS-3090 antibody (TCS CellWorks). […]
Evaluation of the angiogenic power of the compound tested was quantified by image analysis (Olympus IX70 Auto Analysis System) by measuring the length of the tubules developed (in μm) and the number of junctions established within the anastomosed network. […]

Cc1ccc(C(=O)Nc2ccc(S(=O)(=O)O)c3cc(S(=O)(=O)O)cc(S(=O)(=O)O)c23)cc1NC(=O)c1cccc(NC(=O)Nc2cccc(C(=O)Nc3cc(C(=O)Nc4ccc(S(=O)(=O)O)c5cc(S(=O)(=O)O)cc(S(=O)(=O)O)c45)ccc3C)c2)c1 [suramin]
inhibition at 20 µM (Homo sapiens, Endothelial cell, 240 h, read-out: inhibition of the length of the tubular network compared to the control): 49% | number of junctions diminished by a factor compared to the control (suramin 20 μM, day 10): 5.7

VEGF
number of junctions augmented by a factor compared to the control (VEGF 2 ng/ml, day 10): 1.7 | stimulator effect on the length of the tubular network compared to the control (VEGF 2 ng/ml, day 10): 54%
